US20240400606A1, “SMALL MOLECULE ACTIVATORS OF THE IMMUNE SYSTEM” (THE BOARD OF TRUSTEES OF THE UNIVERSITY OF ILLINOIS, priority 2021, published 2024)
Entries after “also recorded” stand apart in the source; their conditions may differ.

How the values were obtained:
SULT2B1b = SULT2B1b (Homo sapiens (Human), UniProt O00204); assay: LC-MS/MS based in vitro assay (DHEA-sulfate formation); format: biochemical; conditions: 100 μM compound, 2 hours; mean±s.e.m., n=3
Description: LC-MS/MS Based In Vitro Assay. Stock solutions of DHEA (5 mM in DMSO) and compound of interest (5 mM in DMSO) were prepared. […] SULT2B1b was diluted to 1.5 μg/μL in protein storage buffer then down to 0.8 μg/μL in 1× activity assay buffer. 30 μL of 0.8 μg/μL SULT2B1b was added to each reaction. Reactions were incubated for 2 hours at 37° C. with shaking at 250 rpm. To quench, 30 μL reaction mix was added to 30 μL ice cold 0.5% HCl in MeCN, then centrifuged at 13,000 xg at room temperature for 3 min. 50 μL supernatant was transferred to an empty Eppendorf tube and submitted for LC-MS/MS quantification (UIUC Metabolomics Center), along with 5 mM DHEA sulfate standard. Controls: Reaction mix made with DHEA and DMSO in place of compound of interest (DHEA control). […] General LC-MS/MS Quantification Method. Both DHEAS and CS samples were analyzed by 6500 QTRAP (Sciex, Redwood City, CA) liquid chromatography-tandem mass spectrometry. […] The flow rate was 0.3 mL/min. […] The source temperature was 400° C. […] Cholesterol-sulfate and DHEA-sulfate were detected by multiple reaction monitoring (MRM) at m/z 465→97.0 and 367.0→97.0 respectively. Software Analyst 1.7.1 ([…]) was used for data acquisition and analysis.

[1] = test system: whole cell CS levels in MCF-7; assay: Whole cell cholesterol sulfate quantification, MCF-7; format: cell-based, human; conditions: for whole cell CS levels vs DMSO: MCF-7, 6.25 μM compound, 72 hours
Description: (§1) General Whole Cell Cholesterol Sulfate Quantification. 60×15 mm tissue culture dishes were seeded with MCF-7 at 2×10^6 cells/dish or T47D at 1×10^6 cells per dish, 5 mL total media volume, and allowed to adhere overnight. Compounds of interest were dissolved in DMSO. Cells were treated with 25 μL 1.25 mM compound of interest stock (6.25 μM final compound concentration, 0.5% final DMSO concentration) or DMSO for 72 hours. To harvest, media was aspirated, and cells were washed once with PBS before detaching with trypsin. Trypsin was quenched with media. Cells were centrifuged at 300 xg for 3 minutes and supernatant was discarded. Cells were resuspended in media and counted using a Countess 3 automated cell counter (Thermo Fisher Scientific). 1.5×10^6 cells were collected, washed twice with 1 mL PBS, then pelleted and stored at −80° C. until lysis. Cell pellets were resuspended in 200 μL cold 70:30 methanol:water and placed on ice. Cell suspension was sonicated on ice (30%, 10 s on, 20 s off, 1 min total) and continued to be incubated on ice for 30 minutes. Lysate was clarified by centrifugation at 14,100 xg at 4° C. for 30 minutes. 100 μL of supernatant was transferred to an empty Eppendorf tube and submitted for LC-MS/MS quantification (UIUC Metabolomics Center), along with 5 mM cholesterol sulfate sodium salt standard.
as §1, with “Time Course Whole Cell” for “General Whole Cell”, “2×10^6 cells/dish per dish,” for “2×10^6 cells/dish or T47D at 1×10^6 cells per dish,”, “DMSO for 0 (harvested immediately), 4, 8, 24, 48, or 72 hours.” for “DMSO for 72 hours.”
Whole Cell Cholesterol Sulfate Quantification with Compound Removal. 60×15 mm tissue culture dishes were seeded with MCF-7 at 2×10^6 cells/dish, 5 mL total media volume, and allowed to adhere overnight. Compounds of interest were dissolved in DMSO. Cells were treated with 25 μL 1.25 mM compound of interest stock (6.25 μM final compound concentration, 0.5% final DMSO concentration) for 0 hours (harvested immediately) or 24 hours. Media was aspirated and replaced with 5 mL fresh media, then cells were either harvested (24 hour time point) or further incubated. To harvest, media was aspirated, and cells were washed once with PBS before detaching with trypsin. Trypsin was quenched with media. Cells were centrifuged at 300 xg for 3 minutes and supernatant was discarded. Cells were resuspended in media and counted using a Countess 3 automated cell counter (Thermo Fisher Scientific). 1.5×10^6 cells were collected, washed twice with 1 mL PBS, then pelleted and stored at −80° C. until lysis. Cell pellets were resuspended in 200 μL cold 70:30 methanol:water and placed on ice. Cell suspension was sonicated on ice (30%, 10 s on, 20 s off, 1 min total) and continued to be incubated on ice for 30 minutes. Lysate was clarified by centrifugation at 14,100 xg at 4° C. for 30 minutes. […]

SULT2B1b, sequence (O00204 whole entry): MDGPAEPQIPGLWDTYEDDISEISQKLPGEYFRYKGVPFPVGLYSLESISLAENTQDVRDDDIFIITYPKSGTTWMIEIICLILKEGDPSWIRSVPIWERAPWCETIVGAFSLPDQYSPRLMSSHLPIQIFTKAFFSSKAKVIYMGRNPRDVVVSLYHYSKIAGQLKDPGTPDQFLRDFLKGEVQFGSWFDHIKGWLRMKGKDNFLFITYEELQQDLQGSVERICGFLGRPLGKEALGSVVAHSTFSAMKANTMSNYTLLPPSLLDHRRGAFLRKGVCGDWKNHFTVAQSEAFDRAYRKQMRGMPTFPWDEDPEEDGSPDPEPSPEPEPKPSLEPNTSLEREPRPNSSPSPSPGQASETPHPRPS

| Compound | inhibition at 100 µM (SULT2B1b) [%] | whole cell CS levels vs DMSO [1] | whole cell CS levels vs DMSO ([1]; listed as 2-273) | CS level rebound after compound removal ([1]; MCF-7, 6.25 μM for 24 hours, then compound-free media up to 48 hours) | time of constant treatment to significantly decreased whole cell CS levels ([1]; MCF-7, 6.25 μM, time course) [h] | treatment concentration showing a decrease in CS levels (whole cell dose response) ([1]; MCF-7, 72 hour treatment) [µM] |
| --- | --- | --- | --- | --- | --- | --- |
| C[C@]12CCC(=O)N(Cc3ccc(Cl)cc3)C1=CC[C@@H]1[C@@H]2C(=O)C[C@]2(C)C(=O)CC[C@@H]12 [Compound 1, (4aR,4bS,6aS,9aS,9bS)-1-(4-chlorobenzyl)-4a,6a-dimethyl-3,4,4a,6,6a,8,9,9a,9b,10-decahydro-1H-indeno[5,4-f]quinoline-2,5,7(4bH)-trione] | 67.8 ± 0.5 | significantly decrease | – | – | – | – |
| C[C@]12CC[C@H](O)CC1=CC[C@@H]1[C@@H]2CC[C@]2(C)C(n3cnc4ccccc43)=CC[C@@H]12 [Compound 2, Galeterone, reference compound] | 57 ± 0.7 | did decrease CS levels | – | – | – | – |
| C[C@]12CCC(=O)N(Cc3ccc(Br)cc3)C1=CC[C@@H]1[C@@H]2C(=O)C[C@]2(C)C(=O)CC[C@@H]12 [Compound 3, (4aR,4bS,6aS,9aS,9bS)-1-(4-bromobenzyl)-4a,6a-dimethyl-3,4,4a,6,6a,8,9,9a,9b,10-decahydro-1H-indeno[5,4-f]quinoline-2,5,7(4bH)-trione] | 72.8 ± 0.1 | significant decrease | significantly decrease; also recorded: significant (p=0.0003) reduction | did not rebound | ≤ 24 | ≤ 0.097 |
